According to patent publication US20130303485A1, “Compositions for Oral Administration of Zoledronic Acid or Related Compounds for Treating Disease” (priority 2012, published 2013):
Where two headings read alike, the source gives them in different places.

Experiments:
[1] = physchem
Procedure: The aqueous solubility of zoledronic acid and disodium zoledronate tetrahydrate was determined. One gram of the test compound was measured in to a beaker. Demineralized water (pH 5.5) was then added in small increments to the test compound, and sonification was applied to the mixture. The procedure was continued until complete dissolution was achieved. Full dissolution was determined to have been reached when a clear solution was present with no visible material. The volume of water required to reach full dissolution was used to calculate a solubility value expressed in grams per 100 mL. The procedure was performed for each compound.

[2] = test system: rat complete Freund's adjuvant (CFA) model of inflammatory pain; type: in vivo, Sprague-Dawley rats; conditions: for improvement in pain threshold from baseline: day three
Procedure: The effect of orally administered zoledronic acid on inflammatory pain was examined using the rat complete Freund's adjuvant (CFA) model. Inflammatory pain was induced by injection of 100% CFA in a 75 μL volume into the left hind paws of Sprague-Dawley rats on day 0, followed by assessments on days 1-3. Animals were orally administered vehicle (control), zoledronic acid 18 mg/m^2 (or 3 mg/kg), zoledronic acid 120 mg/m^2 (or 20 mg/kg), or zoledronic acid 900 mg/m^2 (or 150 mg/kg) daily on days 1-3. Drug was dissolved in distilled water and prepared fresh daily. Animals were fasted prior to dosing. Under current FDA guidelines for extrapolating starting dosages from animals to humans, dosages expressed in mg/m^2 are considered equivalent between mammalian species. Thus, for example, 18 mg/m^2 in a rat is considered equivalent to 18 mg/m^2 in a human being, while 3 mg/kg in a rat may not be equivalent to 3 mg/kg in a human being.
Values for inflammatory pain (mechanical hyperalgesia) in the vehicle and drug-treated animals were obtained on day 0 prior to CFA injection, and at baseline and post-treatment on days 1-3. Pain was assessed using a digital Randall-Selitto device (dRS; IITC Life Sciences, Woodland Hills, Calif.). Animals were placed in a restraint sling that suspended the animal, leaving the hind limbs available for testing. Paw compression threshold was measured by applying increasing pressure to the plantar surface of the hind paw with a dome-shaped tip placed between the 3rd and 4th metatarsus. Pressure was applied gradually over approximately 10 seconds. Measurements were taken from the first observed nocifensive behavior of vocalization, struggle or withdrawal. A cut-off value of 300 g was used to prevent injury to the animal.
Reversal of inflammatory pain was calculated according to the formula:
% reversal=(Post-treatment−Post-CFA baseline)/(Pre-CFA baseline−Post-CFA baseline)×100.
The experiment was carried out using 9-10 animals per group.

[3] = test system: rat complete Freund's adjuvant (CFA) model of arthritis pain; test: Rat complete Freund's adjuvant (CFA) model of arthritis pain, paw compression threshold (Randall-Selitto); type: in vivo; conditions: evaluated day 14 post CFA
Procedure: The effect of orally administered zoledronic acid on arthritis pain was examined in the rat complete Freund's adjuvant (CFA) model of arthritis pain. In this model, injection of 100% complete Freund's adjuvant (CFA) in a […] volume into the left hind paws is followed by a 10-14 day period to allow for the development of arthritis pain. Animals were orally administered vehicle (control), zoledronic acid 54 mg/m^2 (or 9 mg/kg), or zoledronic acid 360 mg/m^2 (or 60 mg/kg), divided in three equal daily doses on the first three days post CFA injection. Drug was dissolved in distilled water and prepared fresh daily. Animals were fasted prior to dosing.
Arthritis pain (mechanical hyperalgesia) in the vehicle and drug-treated animals was evaluated on day 14 post CFA injection using a digital Randall-Selitto device (dRS; IITC Life Sciences, Woodland Hills, Calif.). Animals were placed in a restraint sling that suspended the animal, leaving the hind limbs available for testing. Paw compression threshold was measured by applying increasing pressure to the plantar surface of the hind paw with a dome-shaped tip placed between the 3rd and 4th metatarsus. Pressure was applied gradually over approximately 10 seconds. […]
Reversal of arthritis pain in the ipsilateral (CFA-injected) paw was calculated according to the formula: […]

[4] = test system: rat tibia fracture model of complex regional pain syndrome (CRPS); test: Rat tibia fracture model of complex regional pain syndrome (CRPS): hindpaw pain, weight bearing, edema, warmth; type: in vivo; conditions: oral 18 mg/m^2/day (3 mg/kg/day) for 28 days
Procedure: The effect of orally administered zoledronic acid was examined in the rat tibia fracture model of complex regional pain syndrome (CRPS). CRPS was induced in the rats by fracturing the right distal tibias of the animals and casting the fractured hindpaws for 4 weeks, as described in Guo T Z et al. (Pain. 2004; 108:95-107).
Animals were orally administered either vehicle (control) or zoledronic acid, in a dosage of 18 mg/m^2/day (3 mg/kg/day) for 28 days, starting on the day of fracture and casting. Drug was dissolved in distilled water and administered by gavage. Animals were fasted for 4 hours before and 2 hours after dosing. At the end of the 28-day period, casts were removed, and on the following day, the rats were tested for hindpaw pain, edema, and warmth.
Pain was assessed by measuring hyperalgesia, and weight bearing.
To measure hyperalgesia, an up-down von Frey testing paradigm was used. Rats were placed in a clear plastic cylinder (20 cm in diameter) with a wire mesh bottom and allowed to acclimate for 15 minutes. The paw was tested with one of a series of eight von Frey hairs ranging in stiffness from 0.41 g to 15.14 g. The von Frey hair was applied against the hindpaw plantar skin at approximately midsole, taking care to avoid the tori pads. The fiber was pushed until it slightly bowed and then it was jiggled in that position for 6 seconds. Stimuli were presented at an interval of several seconds. Hindpaw withdrawal from the fiber was considered a positive response. The initial fiber presentation was 2.1 g and the fibers were presented according to the up-down method of Dixon to generate six responses in the immediate vicinity of the 50% threshold. […].
An incapacitance device (IITC Inc. Life Science, Woodland, Calif., USA) was used to measure hindpaw weight bearing, a postural effect of pain. The rats were manually held in a vertical position over the apparatus with the hindpaws resting on separate metal scale plates and the entire weight of the rat was supported on the hindpaws. The duration of each measurement was 6 seconds and 10 consecutive measurements were taken at 60-second intervals. Eight readings (excluding the highest and lowest ones) were averaged to calculate the bilateral hindpaw weight-bearing values. Weight bearing data were analyzed as the ratio between right (fracture) and left hindpaw weight bearing values ((2R/(R+L))×100%).
A laser sensor technique was used to determine the dorsal-ventral thickness of the hindpaw. Before baseline testing the bilateral hindpaws were tattooed with a 2 to 3 mm spot on the dorsal skin over the midpoint of the third metatarsal. […]
The temperature of the hindpaw was measured using a fine wire thermocouple (Omega, Stanford, Conn., USA) applied to the paw skin. […]

[5] = oral 18 mg/m^2 (3 mg/kg) daily on days 1-3
[6] = oral 900 mg/m^2 (150 mg/kg) daily on days 1-3

| SMILES | aqueous solubility ([1]; pH 5.5) | reversal of inflammatory pain [2, 5] | improvement in pain threshold from baseline [2, 5] | paw compression thresholds versus vehicle ([2]; oral 18 mg/m^2, entire measurement period after 30 minutes from start of treatment) | paw compression thresholds versus vehicle ([2]; oral 120 mg/m^2 (20 mg/kg) daily, all time points during the assessment period) | reversal of inflammatory pain [2, 6] | improvement in pain threshold from baseline [2, 6] | toxicity ([2]; oral 900 mg/m^2 (150 mg/kg) daily on days 1-3, two days after cessation of dosing) | paw compression thresholds versus vehicle ([2]; two higher doses (120 and 900 mg/m^2), first two days of dosing) | reversal of arthritis pain ([3]; oral 54 mg/m^2 (9 mg/kg) in three equal daily doses) | reversal of arthritis pain ([3]; oral 360 mg/m^2 (60 mg/kg) in three equal daily doses) | reduction of hindpaw warmth versus vehicle [4] | reversal of fracture induced pain (von Frey threshold) as compared to vehicle [4] | hindlimb weight bearing, % of normal ([4]; fracture hindlimb) | reduction of hindpaw edema versus vehicle ([4]; hindpaw thickness) | solubility ([1]; pH 5.5, water, thermodynamic from solid) |
| --- | --- | --- | --- | --- | --- | --- | --- | --- | --- | --- | --- | --- | --- | --- | --- | --- |
| O.O.O.O.O=P([O-])(O)C(O)(Cn1ccnc1)P(=O)([O-])O.[Na+].[Na+] [disodium zoledronate tetrahydrate] | ≥ 12.5 g/100 mL |  |  |  |  |  |  |  |  |  |  |  |  |  |  |  |
| O=P(O)(O)C(O)(Cn1ccnc1)P(=O)(O)O [zoledronic acid] |  | 29% | 49% | higher than for vehicle | approximately equal or inferior to vehicle | 48% | 83% | significant toxicity necessitating euthanization of all the animals in this group | lower than vehicle | 33% | 54% | 5% | 77% | 86 % of normal | 60% | ≥ 2500 µg/mL |
